{"source": "ChEMBL document CHEMBL1201862", "about": "“PubChem BioAssay data set” (2004)", "key": {"Prothrombin": {"biological_target": "Prothrombin (Homo sapiens, UniProt P00734)", "assay": "Thrombin 1536 HTS Dose Response Confirmation. [Related pubchem assays: 1046 (Thrombin 1536 HTS; hits were confirmed in this assay)]", "type": "functional"}, "[1]": {"assay": "viability loss in HeLa cells – cytotoxicity control for MgcRacGAP inhibitor project, dose response (AID 624300)", "type": "functional"}, "[2]": {"biological_target": "NAD-dependent protein deacylase sirtuin-5, mitochondrial (Homo sapiens, UniProt Q9NXA8)", "sequence (Q9NXA8 whole entry)": "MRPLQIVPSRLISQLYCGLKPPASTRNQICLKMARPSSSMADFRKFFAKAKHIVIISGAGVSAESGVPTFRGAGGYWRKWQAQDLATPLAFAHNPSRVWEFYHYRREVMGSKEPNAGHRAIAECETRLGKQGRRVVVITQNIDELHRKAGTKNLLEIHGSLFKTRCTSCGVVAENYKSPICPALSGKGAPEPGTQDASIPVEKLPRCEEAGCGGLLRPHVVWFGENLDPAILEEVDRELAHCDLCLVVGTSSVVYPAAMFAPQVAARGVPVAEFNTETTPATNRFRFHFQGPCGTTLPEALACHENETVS", "assay": "sirtuin-5 deacylation blockers, concentration series – biochemical, fluorescence imaging, cherry-pick, set 5, dose response (AID 720591);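 also: desuccinylation of succinyl peptide AMC substrate read as fluorescence after trypsin release; potency of inhibitors that lower fluorescence and may act on trypsin instead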"}, "[3]": {"biological_target": "T1, Rac GTPase-activating protein 1 (Homo sapiens, UniProt Q9H0H5)", "T1 sequence (Q9H0H5 whole entry)": "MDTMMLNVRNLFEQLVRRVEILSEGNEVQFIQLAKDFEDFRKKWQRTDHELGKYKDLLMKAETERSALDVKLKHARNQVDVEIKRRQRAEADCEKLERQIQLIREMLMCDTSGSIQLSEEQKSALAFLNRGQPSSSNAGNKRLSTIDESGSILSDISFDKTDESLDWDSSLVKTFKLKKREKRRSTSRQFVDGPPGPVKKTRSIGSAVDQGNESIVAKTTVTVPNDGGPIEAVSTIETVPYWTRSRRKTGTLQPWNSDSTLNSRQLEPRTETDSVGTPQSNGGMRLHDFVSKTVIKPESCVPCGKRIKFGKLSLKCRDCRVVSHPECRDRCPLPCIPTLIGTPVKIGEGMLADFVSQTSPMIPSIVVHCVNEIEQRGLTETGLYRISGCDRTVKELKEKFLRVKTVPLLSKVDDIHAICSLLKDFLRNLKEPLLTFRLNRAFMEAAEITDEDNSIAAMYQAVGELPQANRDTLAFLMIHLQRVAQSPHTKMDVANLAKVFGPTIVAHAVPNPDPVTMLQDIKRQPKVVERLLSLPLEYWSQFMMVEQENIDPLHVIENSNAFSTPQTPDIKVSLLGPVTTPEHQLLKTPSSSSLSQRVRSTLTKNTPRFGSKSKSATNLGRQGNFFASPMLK", "assay": "blockers of MgcRacGAP-driven Rac1 GTP hydrolysis – biochemical, ADP Hunter fluorescence, primary and confirmatory, confirmation (AID 624330)", "type": "functional"}, "[4]": {"assay": "viability of uninfected HEp-2 cells – cell-based, HTS, cytotoxicity control for RSV inhibitor project, dose response (AID 2410)", "type": "functional", "conditions": "human respiratory syncytial virus"}, "[5]": {"biological_target": "T2, Neuropeptide Y receptor type 2 (Homo sapiens, UniProt P49146)", "T2 sequence (P49146 whole entry)": "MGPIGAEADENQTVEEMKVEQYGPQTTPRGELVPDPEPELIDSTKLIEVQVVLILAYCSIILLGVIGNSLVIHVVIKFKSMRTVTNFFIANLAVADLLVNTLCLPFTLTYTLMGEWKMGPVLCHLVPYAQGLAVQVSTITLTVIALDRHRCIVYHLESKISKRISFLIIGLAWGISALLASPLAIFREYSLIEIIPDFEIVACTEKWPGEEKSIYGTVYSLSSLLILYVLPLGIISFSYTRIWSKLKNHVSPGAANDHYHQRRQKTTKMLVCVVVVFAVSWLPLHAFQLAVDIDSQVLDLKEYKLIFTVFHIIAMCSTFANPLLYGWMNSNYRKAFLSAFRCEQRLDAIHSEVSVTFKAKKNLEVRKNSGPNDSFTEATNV", "assay": "Fluorescence-based cell-based high-throughput dose response assay for agonists of NPY-Y2. [Related pubchem assays: 1703 (Screening assay (CNGC inhibitors).), 1359 (Screening assay (NPY-Y2 potentiators or agonists).), 1304 (Screening assay (NPY-Y1 potentiators or agonists).), 1710 (Screening assay (NPY-Y2 agonists).), 1791 (Summary AID.)]", "type": "functional"}, "Protein RecA": {"biological_target": "T3, Protein RecA (Mycobacterium tuberculosis, UniProt P9WHJ3)", "T3 sequence (P9WHJ3 whole entry)": "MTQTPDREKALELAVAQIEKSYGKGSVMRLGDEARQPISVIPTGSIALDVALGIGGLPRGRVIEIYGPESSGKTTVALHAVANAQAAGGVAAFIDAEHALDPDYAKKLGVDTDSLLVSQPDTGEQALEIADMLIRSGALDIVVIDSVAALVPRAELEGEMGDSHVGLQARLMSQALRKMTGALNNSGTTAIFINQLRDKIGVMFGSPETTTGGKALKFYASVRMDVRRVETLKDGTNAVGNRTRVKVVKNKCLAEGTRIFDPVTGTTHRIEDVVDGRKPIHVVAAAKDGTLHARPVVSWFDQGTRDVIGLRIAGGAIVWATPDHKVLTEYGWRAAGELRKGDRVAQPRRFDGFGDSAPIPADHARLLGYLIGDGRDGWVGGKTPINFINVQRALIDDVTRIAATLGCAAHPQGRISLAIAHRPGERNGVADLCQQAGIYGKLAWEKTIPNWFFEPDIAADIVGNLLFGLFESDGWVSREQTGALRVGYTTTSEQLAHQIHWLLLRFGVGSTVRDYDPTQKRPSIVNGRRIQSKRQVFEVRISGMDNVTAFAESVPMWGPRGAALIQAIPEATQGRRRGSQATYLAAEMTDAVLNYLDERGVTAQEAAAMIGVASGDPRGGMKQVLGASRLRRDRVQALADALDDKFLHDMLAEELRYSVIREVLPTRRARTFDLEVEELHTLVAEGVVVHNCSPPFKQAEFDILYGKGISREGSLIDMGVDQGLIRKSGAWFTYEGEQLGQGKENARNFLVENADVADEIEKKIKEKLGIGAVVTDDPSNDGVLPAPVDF", "assay": "Fluorescence Cell-Free Homogeneous Dose Retest to Identify Inhibitors of RecA-Intein Splicing Activity. [Related pubchem assays (depositor defined):AID2097, AID2223, AID489010, AID492950]", "type": "functional"}, "[6]": {"biological_target": "T4, Replicative DNA helicase DnaB (Mycobacterium tuberculosis, UniProt P9WMR3)", "T4 sequence (P9WMR3 whole entry)": "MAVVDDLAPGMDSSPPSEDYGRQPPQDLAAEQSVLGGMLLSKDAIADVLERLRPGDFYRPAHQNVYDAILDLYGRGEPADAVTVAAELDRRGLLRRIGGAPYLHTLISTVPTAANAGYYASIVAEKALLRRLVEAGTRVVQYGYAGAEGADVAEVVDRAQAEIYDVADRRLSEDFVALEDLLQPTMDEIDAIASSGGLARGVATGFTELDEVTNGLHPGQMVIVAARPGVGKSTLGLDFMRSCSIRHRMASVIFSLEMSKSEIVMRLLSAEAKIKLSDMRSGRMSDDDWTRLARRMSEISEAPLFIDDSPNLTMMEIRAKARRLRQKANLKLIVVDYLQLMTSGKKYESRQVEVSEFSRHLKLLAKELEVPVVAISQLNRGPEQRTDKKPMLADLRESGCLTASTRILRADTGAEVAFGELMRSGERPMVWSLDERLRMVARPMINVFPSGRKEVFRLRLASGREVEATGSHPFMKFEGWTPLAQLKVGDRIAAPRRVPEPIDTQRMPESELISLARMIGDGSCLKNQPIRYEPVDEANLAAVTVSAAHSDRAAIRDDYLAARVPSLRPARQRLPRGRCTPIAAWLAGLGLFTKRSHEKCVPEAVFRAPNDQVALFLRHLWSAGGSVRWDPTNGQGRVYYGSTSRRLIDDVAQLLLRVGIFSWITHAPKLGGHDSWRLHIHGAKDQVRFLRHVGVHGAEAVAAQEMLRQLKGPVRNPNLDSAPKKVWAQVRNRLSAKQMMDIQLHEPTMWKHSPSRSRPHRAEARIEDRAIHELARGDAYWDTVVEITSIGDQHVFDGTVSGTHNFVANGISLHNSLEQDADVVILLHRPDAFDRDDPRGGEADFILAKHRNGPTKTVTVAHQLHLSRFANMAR", "assay": "DnaB intein splicing inhibitors, dose response, biochemical, cell-free fluorescence (AID 449749)", "type": "functional"}, "[7]": {"biological_target": "T5, Neuropeptide Y receptor type 1 (Homo sapiens, UniProt P25929)", "T5 sequence (P25929 whole entry)": "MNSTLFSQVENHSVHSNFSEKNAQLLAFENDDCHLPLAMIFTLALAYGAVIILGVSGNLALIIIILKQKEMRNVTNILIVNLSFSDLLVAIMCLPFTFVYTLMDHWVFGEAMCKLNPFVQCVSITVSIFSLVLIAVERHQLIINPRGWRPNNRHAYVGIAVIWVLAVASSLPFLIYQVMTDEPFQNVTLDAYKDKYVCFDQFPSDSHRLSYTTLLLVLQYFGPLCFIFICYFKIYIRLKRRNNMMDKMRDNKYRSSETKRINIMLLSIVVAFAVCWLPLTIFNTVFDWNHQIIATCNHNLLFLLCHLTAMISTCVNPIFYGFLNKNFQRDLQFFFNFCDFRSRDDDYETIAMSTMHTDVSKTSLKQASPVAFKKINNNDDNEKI", "assay": "Fluorescence-based counterscreen for agonists of NPY-Y2: cell-based high-throughput dose response assay for agonists of NPY-Y1.", "type": "functional"}, "Streptokinase A": {"biological_target": "T6, Streptokinase A (Streptococcus pyogenes serotype M1, UniProt P10520)", "T6 sequence (P10520 whole entry)": "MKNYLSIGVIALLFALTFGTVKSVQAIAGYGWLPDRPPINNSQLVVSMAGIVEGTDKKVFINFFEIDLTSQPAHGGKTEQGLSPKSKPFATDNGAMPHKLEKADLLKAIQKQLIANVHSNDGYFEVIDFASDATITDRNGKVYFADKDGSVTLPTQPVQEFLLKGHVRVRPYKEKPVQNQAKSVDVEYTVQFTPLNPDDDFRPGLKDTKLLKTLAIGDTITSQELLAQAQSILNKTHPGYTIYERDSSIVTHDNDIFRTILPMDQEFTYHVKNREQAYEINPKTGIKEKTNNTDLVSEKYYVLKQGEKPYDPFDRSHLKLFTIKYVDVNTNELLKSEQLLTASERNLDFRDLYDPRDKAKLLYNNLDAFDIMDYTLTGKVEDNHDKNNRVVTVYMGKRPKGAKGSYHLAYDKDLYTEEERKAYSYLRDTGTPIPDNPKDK", "assay": "viability-normalized secreted streptokinase activity reduction – plasminogen activation absorbance, OD405, dose response (AID 1914);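 also: secreted streptokinase activity via plasminogen activation per viability signal from cell pellet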", "type": "functional, Streptococcus pyogenes M1 GAS"}, "Streptococcus": {"tested_on": "Streptococcus", "assay": "GAS UMAA2166 growth inhibition – luminescence, BacTiterGlo, counter-screen for streptokinase expression inhibitor project, dose response (AID 1915)", "type": "functional, organism-based"}, "HEK293": {"tested_on": "HEK293", "assay": "Fluorescence-based counterscreen for potentiators or agonists of NPY-Y2: cell-based high-throughput dose response assay to identify inhibitors of cyclic nucleotide gated ion channel (CNGC) activity. In this assay, the parental HEK293 cell line transfected with a cyclic-nucleotide gated ion channel (CNGC)-based cAMP sensor is used to measure inhibition of isoproterenol-induced CNGC activity by test compound.", "type": "functional", "conditions": "Homo sapiens"}, "[8]": {"tested_on": "Streptococcus sp. 'group A'", "assay": "Streptococcus pyogenes SK(-)GAS viability under kanamycin – luminescence, BacTiterGlo, confirmation, counter-screen for streptokinase expression inhibitor project, dose response (AID 1900)", "type": "functional, organism-based"}, "[9]": {"assay": "P. falciparum Dd2 growth inhibitors, dose response, SYBR Green, cherry-picked samples (AID 1159567)", "type": "functional, cell-based"}, "[10]": {"assay": "growth inhibition of yeast DHODH-expressing 3D7 parasites – SYBR Green, dry powder samples, dose response (AID 1159570);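 also: parasite growth measured after 72 hours of compound exposure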", "type": "functional, cell-based"}, "[11]": {"assay": "Dd2 malaria parasite growth inhibition potency – SYBR Green, dry powder samples, dose response (AID 1159566);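 also: potency for growth inhibition with lower SYBR green DNA signal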", "type": "functional, cell-based"}, "[12]": {"assay": "growth inhibition of PfATP4-mutant resistant parasites – NITD609-resistant line, SYBR Green, dry powder, dose response (AID 1159571);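 also: parasites synchronized at ring stage by sorbitol before testing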", "type": "functional, cell-based"}}, "note": "The source made the active and inactive calls."}
{"smiles": "Cc1ccc(C)c(NC(=O)C2Cc3ccccc3CN2C(=O)OCc2ccccc2)c1", "note": "(stereo unspecified)", "values": [{"measurement": "IC50", "setting": "Prothrombin", "result": "> 50 µM (not active)"}]}
{"smiles": "CCN(CC)c1ccc(S(=O)(=O)N2CCOCC2)cc1NC(=O)CN1CCN(Cc2ccccc2)CC1", "values": [{"measurement": "CC50", "setting": "[1]", "result": "100 µM (active)"}, {"measurement": "AC50", "setting": "[2]", "result": "18.1 µM (active)"}, {"measurement": "IC50", "setting": "[3]", "result": "84.5 µM (active)"}]}
{"smiles": "O=C1c2ccccc2C(=O)N1CCCCN(C(=O)c1ccco1)c1ccc(Cl)cc1", "values": [{"measurement": "IC50", "setting": "cells", "result": "11.8 µM (active)"}]}
{"smiles": "Nc1ccc(Br)c[n+]1Cc1cccc2cccnc12", "values": [{"measurement": "IC50", "setting": "cells", "result": "46.7 µM (active)"}, {"measurement": "CC50", "setting": "[4]", "result": "> 50 µM (active)"}]}
{"smiles": "CC(=O)C(=NNc1cccc(Cl)c1)Nc1ccc(Cl)cc1Cl", "values": [{"measurement": "EC50", "setting": "[5]", "result": "21.2 µM (not active)"}, {"measurement": "EC50", "setting": "Protein RecA", "result": "49 µM (active)"}, {"measurement": "AC50", "setting": "[6]", "result": "379 µM (active)"}, {"measurement": "EC50", "setting": "[7]", "result": "12.6 µM (not active)"}, {"measurement": "EC50", "setting": "Streptokinase A", "result": "2.72 µM (active)"}]}
{"smiles": "CC(=O)C(=Nc1ccc(Cl)cc1Cl)NNc1cccc(Cl)c1", "values": [{"measurement": "EC50", "setting": "Streptococcus", "result": "> 150 µM (not active)"}, {"measurement": "EC50", "setting": "HEK293", "result": "> 35.4 µM (not active)"}, {"measurement": "EC50", "setting": "[8]", "result": "3.14 µM (active)"}]}
{"smiles": "CCOC(=O)c1ccc(NC(=O)NC2CCN(CC(=O)NCc3ccc4c(c3)OCO4)CC2)cc1", "values": [{"measurement": "IC50", "setting": "Prothrombin", "result": "> 50 µM (not active)"}]}
{"smiles": "C/C=C/c1ccccc1[C@H]1[C@@H](C#N)N(C(=O)NC2CCCC2)[C@H]1CO", "values": [{"measurement": "AC50", "setting": "[9]", "result": "1.85 µM (active)"}, {"measurement": "AC50", "setting": "[10]", "result": "33.8 µM (active)"}, {"measurement": "AC50", "setting": "[11]", "result": "0.952 µM (active)"}, {"measurement": "AC50", "setting": "[12]", "result": "1.58 µM (active)"}]}
{"smiles": "Cc1ccc(C(=O)n2nc(-c3ccco3)nc2N)cc1", "values": [{"measurement": "IC50", "setting": "Prothrombin", "result": "0.741 µM (active)"}]}
